Source: publication PMC8541342, “Expression, Purification and Refolding of a Human NaV1.7 Voltage Sensing Domain with Native-like Toxin Binding Properties” (Toxins, 2021)
“Also recorded” adds a separate entry of the source.

B1: VSD2/DMPC complex: recombinant refolded NaV1.7 VSD of repeat II, residues 732–860 (UniProt ID Q15858-3), reconstituted into DMPC vesicles (protein)
chain: DPFVDLAITICIVLNTLFMAMEHHPMTEEFKNVLAIGNLVFTGIFAAEMVLKLIAMDPYEYFQVGWNIFDSLIVTLSLVELFLADVEGLSVLRSFRLLRVFKLAKSWPTLNMLIKIIGNSVGALGNLTL

Columns and labels:
[1] = test system: F813A and D816A mutants of NaV1.7 VSD2 in DMPC vesicles; assay: MST binding to mutant VSD2 compared with WT (overlay, Figure S6); set-up: species or system human; settings: F813A and D816A vs WT VSD2 in DMPC
Protocol: (Supplementary Material, Figure S5). […] Lastly, it is additional confirmation that our recombinant system captures details of the interactions that correspond to those with full-length channel in native membranes.
The analysis of the MST binding titrations was carried out with the NanoTemper analy sis software, and the relative fluo-rescence measurements and fitted binding cur ves were combined into a single graph to illustrate the rightshift (lower binding affinity) in both mutants. Based on this analysis, both Phe 813 and Asp 816 appear to play an important role in […]

full-length NaV1.7 = settings: cited from earlier work
mice = settings: ref [9]; cited from earlier work
Source text: This system opens up possibilities for detailed biophysical studies of binding interactions with toxins and other drug candidates for the development of new non-addictive pain therapeutics targeting NaV1.7. In addition, because the protein is expressed in E. coli, it also enables the preparation of isotope-labeled samples or the introduction of unnatural amino acids for structural and functional studies.

[2] = Dynamic light scattering particle size; assay type: physicochemical; settings: DLS, VSD2 in DMPC ~40 μM, fixed-angle, 25 °C, spherical geometry assumed
Protocol: A Brookhaven NanoBrook series instrument was used to perform dynamic light scattering (DLS). The sample in this experiment was the VSD in DMPC solution prepared as described above at a concentration of ~40 μM. Sample was placed into a 1 cm quartz cuvette, and fixed-angle DLS was performed at 25 °C. Measurements of fixed-angle scattering were averaged over time intervals and, therefore, gave the correlation function, which in turn yielded the particle size distribution (assuming exponential correlation), reported as diameter in nm. This processing was done using the NanoBrook instrument analysis software. Particle size analysis assumes spherical geometry.

Molecule	change in binding affinity for mutants (in words) [1]	IC50 (full-length NaV1.7) [nM]	analgesic effects in mice (in words) (mice)	mean particle diameter / size distribution maximum [2]
CC[C@H](C)[C@@H]1NC(=O)[C@@H]2CSSC[C@@H]3NC(=O)[C@H](C(C)C)NC(=O)[C@H](CC(C)C)NC(=O)[C@H](CC(N)=O)NC(=O)[C@@H]4CCCN4C(=O)[C@H](CCCNC(=N)N)NC(=O)[C@H](CSSC[C@H](NC(=O)[C@@H](N)CC(=O)O)C(=O)N[C@@H](CC(C)C)C(=O)NCC(=O)N[C@@H](Cc4ccccc4)C(=O)N[C@@H](CCSC)C(=O)N[C@@H](CCCNC(=N)N)C(=O)N[C@@H](CCCCN)C(=O)N2)NC(=O)[C@H](CSSC[C@@H](C(=O)N[C@@H](CCCCN)C(=O)N[C@@H](Cc2ccc(O)cc2)C(=O)N[C@H](C(=O)N[C@@H](Cc2ccccc2)C(=O)O)C(C)C)NC(=O)[C@H](Cc2c[nH]c4ccccc24)NC(=O)[C@H](CCCCN)NC(=O)[C@H](Cc2c[nH]cn2)NC(=O)[C@H]([C@@H](C)O)NC(=O)[C@H](CCCNC(=N)N)NC(=O)[C@H](CO)NC3=O)NC(=O)[C@H](CCCCN)NC(=O)[C@H](CC(=O)O)NC(=O)[C@H](CC(N)=O)NC(=O)[C@H](CC(=O)O)NC(=O)[C@@H]2CCCN2C1=O [GpTx-I]	decreases in GpTx-I binding affinity; also recorded: substantial reduction in binding affinity	10	analgesic effects superior to morphine in mice; also recorded: exhibits analgesic effects in mice	–
B1	–	–	–	roughly 80 nm
